According to patent publication US20100204161A1, “Substances and Pharmaceutical Compositions for the Inhibition of Glyoxalases and Their Use Against Bacteria” (BIOMAC PRIVATINSTITUT FUR MEDIZINISHE UND ZAHMEDIZ …, priority 2005, published 2010):
Entries after “also recorded” stand apart in the source; their conditions may differ.

Columns and labels:
[1] = test system: primary human skin fibroblasts; assay: Vitality of primary human fibroblasts (dye exclusion count); assay type: cell-based; conditions: 1-50 mM, serum free medium, 24 hours; FIG. 7
Description: An identical number (10^4 cells per well) of primary human skin fibroblasts were inoculated in 24-well plates (Greiner, no. 662160) and were cultured in DMEM (Gibco; no. 41966-092) in the presence of 10% calf serum (Biochrom, S0113/5), 2 mM L-glutamine (Gibco; no. 25030-024), penicillin/streptomycin (100 units penicillin/ml; 100 μg streptomycin/ml, Gibco; no. 15140/122), 5 mg % ascorbic acid (Serva, no. 14030.02) at 37° C., 5% CO2 and 95% humidity. The primary human fibroblasts were prepared according to the instructions of Birkenmeier et al. (1998). After reaching 50% confluency the medium was by fresh serum free medium. Thereafter the following supplements were added to the cells: preparation 1 (equivalent volume of serum free (SF) medium, blank); preparation 2 (1 mM DEL or 1 mM LEL or 1 mM EP); preparation 3 (5 mM DEL or 5 mM LEL or 5 mM EP), preparation 4 (10 mM DEL or 10 mM LEL or 10 mM EP), preparation 5 (20 mM DEL or 20 mM LEL or 20 mM EP), preparation 6 (50 mM DEL or 50 mM LEL or 50 mM EP). The culture was continued at 37° C., 5% CO2 and 95% humidity for 24 hours. Thereafter the supernatants were removed and 100 μl of a 50% […] solution was added to the wells. After washing the cells with medium the unstained and stained cells were counted under the light optical microscope comprising a coordinate plane. Cells stained blue were assessed as avital, unstained cells as vital. The percentage of unstained cells of the total number of cells corresponds to the vitality of the cells.

[2] = target: T1, glyoxalase I of human erythrocytes (Homo sapiens, UniProt Q04760); assay: Enzymatic activity of human erythrocyte glyoxalase I (erythrocyte lysate); assay type: biochemical; conditions: 0-50 mM; FIG. 5
T1 construct: from tissue; host or cells: human erythrocyte lysate
T1 sequence (Q04760 2-184 limits assumed): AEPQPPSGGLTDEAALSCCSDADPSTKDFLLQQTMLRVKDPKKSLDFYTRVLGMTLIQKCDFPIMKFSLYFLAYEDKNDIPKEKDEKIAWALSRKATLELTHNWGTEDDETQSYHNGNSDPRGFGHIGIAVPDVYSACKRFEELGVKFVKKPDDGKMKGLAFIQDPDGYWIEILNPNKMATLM
Description: The determination of glyoxalase I was performed as described above for the yeast enzyme. After the formation of the hemithioacetal, suitable amounts (5 to 100 μl) of an erythrocyte lysate were added to 1 ml of the measuring reagent to start the reaction. The erythrocyte lysate was prepared according to the instructions of Mannervik et al. (1982).
(§1) Glyoxalase activity (IU) corresponds to the amount of enzyme forming 1 μmol of S-D-lactoyl-glutathione/min.
Determination of glyoxalase I activity was performed according to the general protocol as described above. The influence of ethyl pyruvate on enzyme activity was investigated by addition of increasing concentrations of EP (Sigma; no. E4, 780-8; lot. S18972-513) (0-50 mM) to the measuring reagent.

yeast glyoxalase I = target: T2, yeast glyoxalase I (Saccharomyces cerevisiae, UniProt P50107); assay: Enzymatic activity of yeast glyoxalase I (formation of S-D-lactoyl-glutathione, 240 nm); assay type: biochemical; conditions: increasing concentrations (0-30 mM in Example 5); FIG. 1-3; listed as EP
T2 construct: purchased Sigma G-4252
T2 sequence (P50107 1-326): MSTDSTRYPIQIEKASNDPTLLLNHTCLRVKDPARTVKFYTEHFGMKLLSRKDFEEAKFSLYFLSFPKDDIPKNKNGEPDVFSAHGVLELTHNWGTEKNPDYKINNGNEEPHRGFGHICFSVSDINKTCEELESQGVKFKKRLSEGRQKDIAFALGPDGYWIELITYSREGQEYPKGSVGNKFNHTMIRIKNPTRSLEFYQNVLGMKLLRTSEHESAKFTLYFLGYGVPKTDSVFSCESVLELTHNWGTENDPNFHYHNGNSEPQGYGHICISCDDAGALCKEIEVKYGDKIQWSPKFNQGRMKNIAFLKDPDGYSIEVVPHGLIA
Description: Measuring glyoxalase I (E.C.4.4.1.5, lactoyl-glutathione lyase Sigma, G-4252) was performed according to the instructions of McLellan and Thornalley (1989). The principle is based on measuring the initial rate of formation of S-D-lactoyl-glutathione from methylglyoxal (Sigma, MO252, 40%) and reduced L-glutathione (Aldrich, G-4251, >99%). The formation of the product is observed using the extinction coefficient e=2.86 mM-1 cm-1 at 240 nm. The measurement was performed in 50 mM sodium phosphate buffer, pH 7.0. For that purpose 2 mM methylglyoxal and 2 mM reduced glutathione were incubated for 2 minutes at 30° C. for the formation of the hemithioacetal. Thereafter 20 μl of a 1 to 1000 dilution of the glyoxalase I (Sigma, G-4252) was added to 1 ml of the measuring reagent to start the reaction.
as §1
Determination of glyoxalase I activity was performed according to the general protocol as described above. The influence of ethyl pyruvate on enzyme activity was investigated by addition of increasing concentrations of EP (Sigma; no. E4, 780-8; lot. S18972-513) to the measuring reagent.
Determination of glyoxalase I activity was performed according to the general protocol as described above. The influence of compounds of the general formula (I), (II), and (III) on the activity of the enzyme was investigated by addition of increasing concentrations of these compounds to the preparation. The IC50-values were calculated from inhibition curves of each compound.
Determination of glyoxalase I activity was performed according to the general protocol as described above. The influence of 2-oxopropanethioic acid S-ethyl ester on the activity of the enzyme was investigated by addition of increasing concentrations of SE to the preparation for the measurement.
Determination of glyoxalase I activity was performed according to the general protocol as described above. The influence of effectors on the enzymatic activity was investigated by addition of increasing concentrations (0-30 mM) of EP (Sigma; no. E4, 780-8; lot. S18972-513) (triangle), BP (prepared according to the instructions of patent JP 11080089; 98%) (circle) and BL (Fluka, 69819; lot. 443090/1 21503090) (squares) to the measuring reagent (FIG. 3).

## CCOC(=O)C(C)=O [Ethyl pyruvate]
[1]
  Effect on the vitality of primary human fibroblasts: not toxic over the concentration range investigated
[2]
  Inhibition of the enzymatic activity of glyoxalase I of human erythrocytes: inhibits the reaction of glyoxalase I of human erythrocytes in a concentration dependent manner
Yeast glyoxalase I
  Influence on the enzymatic activity of yeast glyoxalase I: inhibits the reaction of yeast glyoxalase I in a concentration dependent manner; also recorded: inhibit the activity of glyoxalase I in a concentration dependent manner
